Results on six molecules are retold here after patent US10988523B2, “Modified lipidated Relaxin B chain peptides and their therapeutic use” (Sanofi, priority 2018, dated 2021).

One data set addresses T1, RXFP1 (Homo sapiens, UniProt Q9HBX9).
T1 construct: OVCAR5 cells expressing endogenous RXFP1; endogenous in cells; host or cells: OVCAR5 cells
T1 sequence (Q9HBX9 1-757): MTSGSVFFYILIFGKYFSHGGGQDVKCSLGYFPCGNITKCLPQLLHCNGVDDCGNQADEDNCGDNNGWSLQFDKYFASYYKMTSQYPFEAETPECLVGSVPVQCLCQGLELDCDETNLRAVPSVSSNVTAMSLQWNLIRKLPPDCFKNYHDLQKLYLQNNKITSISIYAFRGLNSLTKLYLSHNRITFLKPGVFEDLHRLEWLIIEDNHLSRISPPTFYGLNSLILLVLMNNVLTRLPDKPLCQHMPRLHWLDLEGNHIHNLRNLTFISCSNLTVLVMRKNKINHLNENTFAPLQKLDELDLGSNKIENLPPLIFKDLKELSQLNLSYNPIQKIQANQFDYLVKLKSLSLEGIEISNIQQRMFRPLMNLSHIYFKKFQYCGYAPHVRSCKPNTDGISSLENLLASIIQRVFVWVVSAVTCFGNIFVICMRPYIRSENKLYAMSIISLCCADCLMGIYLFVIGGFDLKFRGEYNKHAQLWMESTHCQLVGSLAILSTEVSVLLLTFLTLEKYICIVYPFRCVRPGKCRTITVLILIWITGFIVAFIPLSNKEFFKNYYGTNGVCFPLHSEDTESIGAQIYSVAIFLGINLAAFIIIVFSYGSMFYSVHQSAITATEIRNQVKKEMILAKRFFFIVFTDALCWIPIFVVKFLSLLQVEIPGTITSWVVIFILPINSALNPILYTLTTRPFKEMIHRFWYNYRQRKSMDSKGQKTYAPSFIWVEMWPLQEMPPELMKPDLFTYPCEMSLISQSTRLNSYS
Nature of the data set: OVCAR5 cAMP assay (HTRF), RXFP1 agonist activity. It is filed as cell-based. The note with it: for EC50: OVCAR5 cells, cAMP HTRF, read-out: EC50 (nM), OVCAR 5 cells (cAMP); for Emax: OVCAR-5, maximal cAMP relative to H2-relaxin maximum (100%), read-out: EMax, OVCAR 5 cells (cAMP). In outline:
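OVCAR5 cells (endogenous RXFP1) pretreated 40 min at 37° C with 1 mM IBMX, then exposed to peptides in serum-free medium for 30 min at 37° C. Lysate cAMP read by HTRF; EC50 from variable-slope sigmoidal fit; Emax as % of H2-relaxin maximal cAMP in same run.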

A short description of data set [1]: Pharmacokinetic (PK) determination after i.v. or s.c. administration to rats. Format: in vivo, Sprague Dawley rats. The note with it: Sprague Dawley, Rat PK; for C0 / half-life: iv, 1 mg/kg i.v.; for C0: extrapolated plasma concentration at t=0, read-out: C0; for half-life / Cmax / Tmax / bioavailability: plasma; for half-life: read-out: T½ (converted); for Cmax / Tmax: sc, 3 mg/kg s.c.; for bioavailability: subcutaneous, 3 mg/kg s.c. vs 1 mg/kg i.v., dose-corrected AUC ratio. The method, boiled down: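 Sprague Dawley rats received peptide in PBS at 1 mg/kg i.v. or 3 mg/kg s.c., dose corrected for salts, solvent and purity. Plasma analysed by LC/MS after protein precipitation; non-compartmental PK, BLQ values set to zero, F% as dose-corrected s.c./i.v. AUC ratio.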

*1 amine or outer side, *2 acyl side, *3 side chain or, on linkers, in order; H or OH if unused. Where a SMILES comes first, the peptide text is derived from it. Side-chain parts run from the residue outwards. [ ]: non-standard residue; d: D form. The star is where a group is joined. X5 = CCCCCCCCCCCCCCCC(=O)N[C@@H](CCC(=O)NCCCC[C@H](NC(=O)CC[C@H](NC(=O)CC[C@H](NC(=O)CC[C@H](NC(=O)CCC(=O)NCCCOCCOCCOCCCNC(=O)CCC(=O)NCCCOCCOCCOCCCN*)C(=O)O)C(=O)O)C(=O)O)C(N)=O)C(=O)O; PEG12 = NCCOCCOCCOCCOCCOCCOCCOCCOCCOCCOCCOCCOCCC(=O)O; γGlu = O=C(O)[C@H](CCC(=O)[*:2])N[*:1]; 1Nal = N[C@@H](Cc1cccc2ccccc12)C(=O)O; Stearoyl = CCCCCCCCCCCCCCCCCC(=O)*; Palmitoyl = CCCCCCCCCCCCCCCC(=O)*; αMeK = C[C@](N)(CCCCN)C(=O)O; Nle = CCCC[C@H](N)C(=O)O; AEEA = NCCOCCOCC(=O)O; Aib = CC(C)(N)C(=O)O

In the case of `CCCCCCCCCCCCCCCC(=O)N[C@@H](CCC(=O)NCCCC[C@H](NC(=O)CC[C@H](NC(=O)CC[C@H](NC(=O)CC[C@H](NC(=O)COCCOCCNC(=O)COCCOCCNC(=O)COCCOCCNC(=O)COCCOCCNC(=O)[C@H](CCCCNC(C)=O)NC(=O)[C@H](CCCCN)NC(=O)[C@H](CCCNC(=N)N)NC(=O)[C@](C)(CCCCN)NC(=O)[C@H](CO)NC(=O)[C@H](Cc1c[nH]c2ccccc12)NC(=O)[C@@H](NC(=O)[C@H](CO)NC(=O)[C@H](CCCC)NC(=O)CNC(=O)[C@H](CCC(=O)O)NC(=O)C(C)(C)NC(=O)C(C)(C)NC(=O)[C@@H](NC(=O)[C@H](CCCCNC(C)=O)NC(=O)[C@H](C)NC(=O)[C@H](CCCNC(=N)N)NC(=O)[C@@H](NC(=O)[C@H](CCCCN)NC(=O)[C@H](CCC(=O)O)NC(=O)[C@H](CCCNC(=N)N)NC(=O)CNC(=O)[C@H](CCC(=O)O)NC(=O)[C@H](CC(C)C)NC(C)=O)C(C)C)[C@@H](C)CC)[C@@H](C)O)C(=O)O)C(=O)O)C(=O)O)C(N)=O)C(=O)O` [compound 136] (Ac-LEGREKVRAK(Ac)I[Aib][Aib]EG[Nle]STWS[αMeK]RKK(Ac)[AEEA][AEEA][AEEA][AEEA][γGlu][γGlu][γGlu]K([γGlu-Palmitoyl])-NH2), at RXFP1, the half-maximal effective concentration (EC50) stood at 0.03 nM and the Emax was found to be 92%. Further, in data set [1], the C0 is 3000 nM, the half-life is 2.9 h, the concentration peaked (Cmax) at 1870 nM and the time to peak (Tmax) worked out at 8 h. Also, the bioavailability in data set [1] turned out to be 86%.
`CCCCCCCCCCCCCCCC(=O)N[C@@H](CCC(=O)N[C@@H](CCC(=O)N[C@@H](CCC(=O)NCCCC[C@H](NC(=O)CCOCCOCCOCCOCCOCCOCCOCCOCCOCCOCCOCCOCCNC(=O)[C@H](CCCCN)NC(=O)[C@H](CCCNC(=N)N)NC(=O)C(C)(C)NC(=O)[C@H](CO)NC(=O)[C@H](Cc1c[nH]c2ccccc12)NC(=O)[C@@H](NC(=O)[C@H](CO)NC(=O)[C@H](CCCC)NC(=O)CNC(=O)[C@H](CCC(=O)O)NC(=O)C(C)(C)NC(=O)C(C)(C)NC(=O)[C@@H](NC(=O)[C@H](CCC(N)=O)NC(=O)[C@H](C)NC(=O)[C@H](CCCNC(=N)N)NC(=O)[C@@H](NC(=O)[C@H](CCCCN)NC(=O)[C@H](CCC(=O)O)NC(=O)[C@H](CCCNC(=N)N)NC(=O)CNC(=O)[C@H](CCC(=O)O)NC(=O)[C@H](CC(C)C)NC(C)=O)C(C)C)[C@@H](C)CC)[C@@H](C)O)C(N)=O)C(=O)O)C(=O)O)C(=O)O` [compound 24] (Ac-LEGREKVRAQI[Aib][Aib]EG[Nle]STWS[Aib]RK[PEG12]K([γGlu-γGlu-γGlu-Palmitoyl])-NH2): the maximal effect (Emax) on RXFP1 is 74%. Besides, in data set [1], the C0 was 3700 nM, the half-life was 6.4 h, the Cmax came to 1800 nM and the Tmax was found to be 5 h. In addition, the bioavailability in data set [1] was 81%.
As to `CCCCCCCCCCCCCCCC(=O)N[C@@H](CCC(=O)NCCCC[C@H](NC(=O)CC[C@H](NC(=O)CC[C@H](NC(=O)CC[C@H](NC(=O)COCCOCCNC(=O)COCCOCCNC(=O)COCCOCCNC(=O)COCCOCCNC(=O)[C@H](CCCCNC(C)=O)NC(=O)[C@H](C)NC(=O)[C@H](CCCNC(=N)N)NC(=O)[C@](C)(CCCCN)NC(=O)[C@H](CO)NC(=O)[C@H](Cc1ccccc1)NC(=O)[C@@H](NC(=O)[C@H](CO)NC(=O)[C@H](CCCC)NC(=O)CNC(=O)[C@H](CCC(=O)O)NC(=O)C(C)(C)NC(=O)C(C)(C)NC(=O)[C@@H](NC(=O)[C@H](CCCCNC(C)=O)NC(=O)[C@H](C)NC(=O)[C@H](CCCNC(=N)N)NC(=O)[C@@H](NC(=O)[C@H](CCCCN)NC(=O)[C@H](CCC(=O)O)NC(=O)[C@H](CCCNC(=N)N)NC(=O)CNC(=O)[C@H](CCC(=O)O)NC(=O)[C@H](CC(C)C)NC(C)=O)C(C)C)[C@@H](C)CC)[C@@H](C)O)C(=O)O)C(=O)O)C(=O)O)C(N)=O)C(=O)O` [compound 149] (Ac-LEGREKVRAK(Ac)I[Aib][Aib]EG[Nle]STFS[αMeK]RAK(Ac)[AEEA][AEEA][AEEA][AEEA][γGlu][γGlu][γGlu]K([γGlu-Palmitoyl])-NH2), at RXFP1, the EC50 stood at 0.11 nM and the Emax came to 87%. Also, in data set [1], the C0 is 3330 nM, the half-life is 4.33 h, the peak level (Cmax) was 2500 nM and the Tmax is 6 h. For the same molecule, the bioavailability in data set [1] came out at 128%.
`CCCCCCCCCCCCCCCC(=O)N[C@@H](CCC(=O)NCCCC[C@H](NC(=O)CC[C@H](NC(=O)CC[C@H](NC(=O)CC[C@H](NC(=O)CCC(=O)NCCCOCCOCCOCCCNC(=O)CCC(=O)NCCCOCCOCCOCCCNC(=O)[C@H](CCCCNC(C)=O)NC(=O)[C@H](C)NC(=O)[C@H](CCCNC(=N)N)NC(=O)[C@](C)(CCCCN)NC(=O)[C@H](CO)NC(=O)[C@H](Cc1ccccc1)NC(=O)[C@@H](NC(=O)[C@H](CO)NC(=O)[C@H](CCCC)NC(=O)CNC(=O)[C@H](CCC(=O)O)NC(=O)C(C)(C)NC(=O)C(C)(C)NC(=O)[C@@H](NC(=O)[C@H](CCCCNC(C)=O)NC(=O)[C@H](C)NC(=O)[C@H](CCCNC(=N)N)NC(=O)[C@@H](NC(=O)[C@H](CCCCN)NC(=O)[C@H](CCC(=O)O)NC(=O)[C@H](CCCNC(=N)N)NC(=O)CNC(=O)[C@H](CCC(=O)O)NC(=O)[C@H](CC(C)C)NC(C)=O)C(C)C)[C@@H](C)CC)[C@@H](C)O)C(=O)O)C(=O)O)C(=O)O)C(N)=O)C(=O)O` [compound 157] (Ac-LEGREKVRAK(Ac)I[Aib][Aib]EG[Nle]STFS[αMeK]RAK(Ac)-X5): on RXFP1, the EC50 worked out at 0.02 nM and the Emax was determined as 89%. Moreover, in data set [1], the C0 was 4350 nM, the half-life is 6.69 h, the highest level (Cmax) was 1510 nM and the Tmax is 8 h. Further, the bioavailability in data set [1] is 59%.
As to `CCCCCCCCCCCCCCCCCC(=O)N[C@@H](CCC(=O)N[C@@H](CCC(=O)N[C@@H](CCC(=O)NCCCC[C@H](NC(=O)CCOCCOCCOCCOCCOCCOCCOCCOCCOCCOCCOCCOCCNC(=O)[C@H](CCCCN)NC(=O)[C@H](CCCNC(=N)N)NC(=O)C(C)(C)NC(=O)[C@H](CO)NC(=O)[C@H](Cc1cccc2ccccc12)NC(=O)[C@@H](NC(=O)[C@H](CO)NC(=O)[C@H](CCCC)NC(=O)CNC(=O)[C@H](CCC(=O)O)NC(=O)C(C)(C)NC(=O)C(C)(C)NC(=O)[C@@H](NC(=O)[C@H](CCCCNC(C)=O)NC(=O)[C@H](C)NC(=O)[C@H](CCCNC(=N)N)NC(=O)[C@@H](NC(=O)[C@H](CCCCN)NC(=O)[C@H](CCC(=O)O)NC(=O)[C@H](CCCNC(=N)N)NC(=O)CNC(=O)[C@H](CCC(=O)O)NC(=O)[C@H](CC(C)C)NC(C)=O)C(C)C)[C@@H](C)CC)[C@@H](C)O)C(N)=O)C(=O)O)C(=O)O)C(=O)O` [compound 45] (Ac-LEGREKVRAK(Ac)I[Aib][Aib]EG[Nle]ST[1Nal]S[Aib]RK[PEG12]K([γGlu-γGlu-γGlu-Stearoyl])-NH2), the Emax at RXFP1 was determined as 79%. In addition, in data set [1], the C0 is 2900 nM, the half-life is 2.88 h, the Cmax is 2200 nM and the Tmax stood at 7 h. In addition, the bioavailability in data set [1] is 65%.
On to `CCCCCCCCCCCCCCCC(=O)N[C@@H](CCC(=O)N[C@@H](CCC(=O)N[C@@H](CCC(=O)NCCCC[C@H](NC(=O)CCOCCOCCOCCOCCOCCOCCOCCOCCOCCOCCOCCOCCNC(=O)[C@H](CCCCN)NC(=O)[C@H](CCCNC(=N)N)NC(=O)C(C)(C)NC(=O)[C@H](CO)NC(=O)[C@H](Cc1c[nH]c2ccccc12)NC(=O)[C@@H](NC(=O)[C@H](CO)NC(=O)[C@H](CCCC)NC(=O)CNC(=O)[C@H](CCC(=O)O)NC(=O)C(C)(C)NC(=O)C(C)(C)NC(=O)[C@@H](NC(=O)[C@H](CCCCNC(C)=O)NC(=O)[C@H](C)NC(=O)[C@H](CCCNC(=N)N)NC(=O)[C@@H](NC(=O)[C@H](CCCCN)NC(=O)[C@H](CCC(=O)O)NC(=O)[C@H](CCCNC(=N)N)NC(=O)CNC(=O)[C@H](CCC(=O)O)NC(=O)[C@H](CC(C)C)NC(C)=O)C(C)C)[C@@H](C)CC)[C@@H](C)O)C(N)=O)C(=O)O)C(=O)O)C(=O)O` [compound 38] (Ac-LEGREKVRAK(Ac)I[Aib][Aib]EG[Nle]STWS[Aib]RK[PEG12]K([γGlu-γGlu-γGlu-Palmitoyl])-NH2), for which, at RXFP1, the EC50 was determined as 0.21 nM and the Emax amounted to 89%. Further, in data set [1], the C0 was 4370 nM, the half-life is 7.16 h, the highest level (Cmax) was 2500 nM and the Tmax turned out to be 8 h. Further, the bioavailability in data set [1] is 79%.
